The text below walks through data of patent US10188615B2, “Alkoxy compounds for disease treatment” (Acucela Inc., priority 2007, dated 2019).

The target of test [1] is recombinant human RPE65 and LRAT (Homo sapiens (Human), UniProt Q16518). Description: Human in vitro isomerase inhibition assay. Type of test: biochemical. To be noted: Human in vitro Inhibition data; inhibition of 11-cis-retinol formation; HEK293 homogenate, all-trans-retinol about 20 μM, 37° C., one hour; given as ranges. On the procedure:
The concentration dependent effect of the compounds disclosed herein on the retinol isomerization reaction was also evaluated with a recombinant human enzyme system. […] A homogenate of HEK293 cell clone expressing recombinant human RPE65 and LRAT were the source of the visual enzymes, and exogenous all-trans-retinol (about 20 μM) was used as the substrate. Recombinant human CRALBP (about 80 ug/mL) was added to enhance the formation of 11 cis-retinal. The 200 μL Bis-Tris Phosphate buffer (10 mM, pH 7.2) based reaction mixture also contains 0.5% BSA, and 1 mM NaPPi. In this assay, the reaction was carried out at 37° C. in duplicates for one hour and was terminated by addition of 300 μL methanol. The amount of reaction product, 11-cis-retinol, was measured by HPLC analysis following Heptane extraction of the reaction mixture. […] The ability of the numerous compounds disclosed herein to inhibit isomerization reaction is quantified and the respective IC50 value is determined.

The target of test [2] is isomerase (Mus musculus (Mouse), UniProt Q91ZQ5). The test can be described thus: In vivo murine isomerase assay (recovery of 11-cis-retinal after photobleaching). Further details: species or system mice. Conditions: read-out: % Inhibition 1 mg/kg, 4 h. On the procedure:
The capability of compounds described herein to inhibit isomerase was determined by an in vivo murine isomerase assay. Brief exposure of the eye to intense light (“photobleaching” of the visual pigment or simply “bleaching”) is known to photo-isomerize almost all 11-cis-retinal in the retina. The recovery of 11-cis-retinal after bleaching can be used to estimate the activity of isomerase in vivo. Delayed recovery, as represented by lower 11-cis-retinal oxime levels, indicates inhibition of isomerization reaction.
The mice were allowed to recover 2 hours in the dark. The animals were then sacrificed by carbon dioxide inhalation. Retinoids were extracted from the eye and the regeneration of 11-cis-retinal was assessed at various time intervals.
After the mice were sacrificed, the eyes were immediately removed and placed in liquid nitrogen for storage.
The eyes were placed in 500 μL of bis-tris propane buffer (10 mM, pH ˜7.3) and 20 µL of 0.8M hydroxile amine (pH-7.3). The eyes were cut up into small pieces with small iris scissors and then thoroughly homogenized at 30000 rpm with a mechanical homogenizer (Polytron PT 1300 D) in the tube until no visible tissue remained. 500 μL of methanol and 500 μL of heptane were added to each tube. The tubes were attached to a vortexer so that the contents were mixed thoroughly for 15 minutes in room temperature. The organic phase was separated from the aqueous phase by centrifugation for 10 min at 13K rpm, 4° C. 240 μL of the solution from the top layer (organic phase) was removed and transferred to clean 300 μl glass inserts in HPLC vials using glass pipette and the vials were crimped shut tightly.
Loading volume for each sample is 100 μl; detection wavelength is 360 nm. The area under the curve for 11-cis retinal oxime was calculated by Agilent Chemstation software and was recorded manually. Data processing was performed using Prizm software.
Positive control mice (no compound administered) were sacrificed fully dark-adapted and the eye retinoids analyzed. Light (bleached) control mice (no compound administered) were sacrificed and retinoids isolated and analyzed immediately after light treatment.
Mice were sacrificed 2 hours after bleaching, eyes were enucleated, and retinoid content was analyzed by HPLC.
Recovery control mice (vehicle-only treated) were light-treated and left to recover for 2 hours in the dark before sacrifice and analysis. Light control mice (vehicle only treated) were sacrificed for analysis immediately after photo-bleaching.

Molecules are shown by their SMILES.

Chain of isomerase (Q91ZQ5 whole entry): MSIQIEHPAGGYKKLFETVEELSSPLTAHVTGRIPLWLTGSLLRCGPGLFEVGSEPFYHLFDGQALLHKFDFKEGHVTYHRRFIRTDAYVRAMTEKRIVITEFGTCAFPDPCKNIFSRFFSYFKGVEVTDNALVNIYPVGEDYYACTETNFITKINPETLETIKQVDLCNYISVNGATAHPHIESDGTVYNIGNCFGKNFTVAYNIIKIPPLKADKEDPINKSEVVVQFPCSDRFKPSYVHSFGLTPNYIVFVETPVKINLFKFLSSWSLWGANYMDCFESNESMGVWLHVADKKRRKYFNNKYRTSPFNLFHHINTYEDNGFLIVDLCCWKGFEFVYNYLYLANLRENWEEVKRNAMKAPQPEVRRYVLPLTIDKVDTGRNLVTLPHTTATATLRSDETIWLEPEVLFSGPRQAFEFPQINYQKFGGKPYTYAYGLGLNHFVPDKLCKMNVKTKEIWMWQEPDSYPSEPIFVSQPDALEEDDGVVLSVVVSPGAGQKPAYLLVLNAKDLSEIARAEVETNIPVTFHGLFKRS
Chain of recombinant human RPE65 and LRAT (Q16518 2-533): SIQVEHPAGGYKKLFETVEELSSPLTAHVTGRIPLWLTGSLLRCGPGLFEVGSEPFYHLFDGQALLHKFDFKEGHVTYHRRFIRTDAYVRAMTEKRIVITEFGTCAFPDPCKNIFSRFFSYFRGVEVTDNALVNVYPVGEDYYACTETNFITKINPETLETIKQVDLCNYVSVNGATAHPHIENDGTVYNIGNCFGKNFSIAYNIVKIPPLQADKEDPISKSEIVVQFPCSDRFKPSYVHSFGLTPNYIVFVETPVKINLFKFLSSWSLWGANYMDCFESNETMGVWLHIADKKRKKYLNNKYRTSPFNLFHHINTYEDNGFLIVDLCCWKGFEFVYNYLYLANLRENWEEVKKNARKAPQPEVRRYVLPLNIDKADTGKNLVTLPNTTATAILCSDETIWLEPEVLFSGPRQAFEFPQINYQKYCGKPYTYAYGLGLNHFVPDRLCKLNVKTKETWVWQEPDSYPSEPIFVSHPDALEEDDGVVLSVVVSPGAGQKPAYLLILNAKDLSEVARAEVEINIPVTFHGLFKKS

Take `CCC(O)(CC)COc1cccc(C(O)CCN)c1` (stereo not drawn) [Example 30, 3-((3-(3-Amino-1-hydroxypropyl)phenoxy)methyl)pentan-3-ol]: the half-maximal inhibitory concentration (IC50) – broadly, the concentration that gives 50% inhibition – in test [1] is not above 10 nM. Also, in test [2], the inhibition at 1 mg/kg was determined as 57%. `NCCC(O)c1cccc(OCC2CCC2)c1` (stereo not drawn) [Example 34, 3-Amino-1-(3-(cyclobutylmethoxy)phenyl)propan-1-ol]: the IC50 in test [1] is not above 10 nM. Regarding `NCCOc1cccc(OCCc2ccccc2)c1` [Example 47, 2-(3-Phenethoxyphenoxy)ethanamine], the inhibition at 1 mg/kg in test [2] stood at 6%. As to `C[C@@H](CN)[C@H](O)c1cccc(OCC2CCCCC2)c1` [Example 73, (1S,2S)-3-Amino-1-(3-(Cyclohexylmethoxy)Phenyl)-2-Methylpropan-1-Ol], the inhibition at 1 mg/kg in test [2] is 23%. On the same count and under the same terms, next, `COCCOCCOCC(=O)NCCC(O)c1cccc(OCC2CCCCC2)c1` (stereo not drawn) [Example 77, N-(3-(3-(Cyclohexylmethoxy)phenyl)-3-hydroxypropyl)-2-(2-(2-methoxyethoxy)ethoxy)acetamide]: 22%.

Regarding `CCCCCOc1cccc(C(O)CCN)c1` (stereo not drawn) [Example 87, 3-Amino-1-(3-(pentyloxy)phenyl)propan-1-ol], in test [1], the half-maximal inhibitory concentration (IC50) is not above 10 nM.

In the case of `CC(C)CCOc1cccc(C(O)CCN)c1` (stereo not drawn) [Example 107, 3-Amino-1-(3-(isopentyloxy)phenyl)propan-1-ol], the inhibition at 1 mg/kg in test [2] is 62%. For the molecule `Cc1ccc(COc2cccc(CCCN)c2)cc1` [Example 119, 3-(3-(4-Methylbenzyloxy)phenyl)propan-1-amine], the “IC50 (μM)” value in test [1] is on record as “No detectable”. The same measure, in the same setting: next, `NCCCc1cccc(OCc2ccc(Cl)cc2)c1` [Example 120, 3-(3-(4-Chlorobenzyloxy)phenyl)propan-1-amine]: “No detectable”; `COc1ccc(COc2cccc(CCCN)c2)cc1` [Example 121, 3-(3-(4-Methoxybenzyloxy)phenyl)propan-1-amine]: “No detectable”.

As to `NCCS(=O)(=O)c1cccc(OCC2CCCCC2)c1` [Example 125, 2-(3-(Cyclohexylmethoxy)phenylsulfonyl)ethanamine], in test [2], the inhibition at 1 mg/kg was found to be 4%.

For `N=C(N)CC(O)c1cccc(OCC2CCCCC2)c1` (stereo not drawn) [Example 130, 3-(3-(Cyclohexylmethoxy)phenyl)-3-hydroxypropanimidamide], the inhibition at 1 mg/kg in test [2] is 3%. Turning to `NCCOc1cccc(OCCO)c1` [Example 141, 2-(3-(2-Aminoethoxy)phenoxy)ethanol], in test [1], the “IC50 (μM)” value was “No detectable”.

On to `NCCC(O)c1cccc(OCC2CCC(F)(F)CC2)c1` (stereo not drawn) [Example 169, 3-Amino-1-(3-((4,4-difluorocyclohexyl)methoxy)phenyl)propan-1-ol], for which, in test [1], the IC50 was not above 10 nM. Still for that read-out and setting: next, `COC(=O)c1cc(CCCN)cc(OCC2CCCCC2)c1` [Example 170, Methyl 3-(3-aminopropyl)-5-(cyclohexylmethoxy)benzoate]: more than 10000 nM; `NCC[C@@H](O)c1cccc(OC[C@H]2CC[C@@H](O)CC2)c1` [Example 171, (1,4-Cis)-4-((3-((R)-3-Amino-1-Hydroxypropyl)Phenoxy)Methyl)Cyclohexanol]: not above 10 nM; `NCC[C@@H](O)c1cccc(OC[C@H]2CC[C@H](O)CC2)c1` [Example 172, (1,4-Trans)-4-((3-((R)-3-Amino-1-Hydroxypropyl)Phenoxy)Methyl)Cyclohexanol]: not above 10 nM.

Take `NCC[C@@H](O)c1cccc(OC[C@@H]2CCCC[C@H]2O)c1` [Example 175, (1,2-trans)-2-((3-((R)-3-Amino-1-hydroxypropyl)phenoxy)methyl)cyclohexanol]: the IC50 in test [1] is not above 10 nM. The same measure, in the same setting: the value for `NCC[C@@H](O)c1cccc(OC[C@H]2CCCC[C@H]2O)c1` [Example 176, (1,2-cis)-2-((3-((R)-3-Amino-1-hydroxypropyl)phenoxy)methyl)cyclohexanol] was not above 10 nM. On to `CN(C)CCC(=O)c1cccc(OCC2CCCCC2)c1` [Example 182, 1-(3-(Cyclohexylmethoxy)phenyl)-3-(dimethylamino)propan-1-one], for which, in test [1], the IC50 was more than 10000 nM.
